Measured values as given in US20100075960A1 (priority 2006, published 2010).

What was measured:
Type in all cases: cell-based
COLO205 = assay: Inhibition of cell proliferation, COLO205; details: Homo sapiens, COLO 205; Colon; 72 h; methylene blue or CellTiter-Glo
Procedure: (§1) II. Inhibition of Cell Proliferation by PLK1 Inhibitors.
(§2) Exponentially growing cell lines of different tumor origins, cultured in appropriate media containing 10% fetal bovine serum at 37° C. in a 5% CO2 incubator were plated in 96 or 384-well plates. Twenty four hours post-plating, cells were treated with different concentrations of test compounds ranging from 20 μM to 0.04 nM. Several wells were left untreated as a control. Seventy two hours post-treatment, cell numbers were determined using different techniques; 100 μl per well of methylene blue (Sigma M9140) (0.5% in 50:50 Ethanol:water), or 10-100 μl per well of CellTiter-Glo (Promega #G7573), depending on well size. For methylene blue staining, stain was incubated at room temperature for 30 minutes before plates were rinsed and dye solubilized in 1% N-lauroyl sarcosine, sodium salt, (Sigma L5125, in PBS). Plates were read on a microplate reader, measuring the OD at 620 nm. For CellTiter-Glo, plates were incubated at room temperature for 15 minutes and the chemiluminescent signal was read on the Victor V or Envison 2100 reader.
(§3) Percent inhibition of cell growth was expressed as percent proliferation relative to 100% proliferation (control). Concentration of test compound that inhibited 50% of cell growth (IC50) was determined by 4 parameter fit of data using XLfit, (value of no cell control was substracted from all samples for background). The data are shown in Table 1 and Table 2 below and represent a compilation of several different experiments each performed using the general parameters outlined above, although minor variations may have been employed in some instances, in Table 1 and Table 2, +=IC50>1 μM; ++=IC50 0.5-1 μM: +++=IC50<0.5 μM.

HCT116 = assay: Inhibition of cell proliferation, HCT116; details: Homo sapiens, HCT-116; 72 h treatment; methylene blue or CellTiter-Glo
SKOV-3 = assay: Inhibition of cell proliferation, SKOV-3; details: Homo sapiens, SK-OV-3; Ovarian; 72 h; methylene blue or CellTiter-Glo
Procedure: as §1, §2, §3

MX-1 = assay: Inhibition of cell proliferation, MX-1; details: Homo sapiens, MX1; Breast; 72 h; methylene blue or CellTiter-Glo
Procedure: as §1, §2, §3

HT29 = assay: Inhibition of cell proliferation, HT29; details: Homo sapiens, HT-29; Colon; 72 h; methylene blue or CellTiter-Glo
Procedure: as §1, §2, §3

P388 = assay: Inhibition of cell proliferation, P388; details: Mouse leukemia, 72 h, methylene blue or CellTiter-Glo
Procedure: as §1, §2, §3

Measured: IC50

Cc1cc(-c2ccc3c(c2)ncn3-c2cc(O[C@H](C)c3cccc(OC4CCNCC4)c3Cl)c(C(N)=O)s2)ccn1 [Example 49, 3-({(1R)-1-[2-Chloro-3-(4-piperidinyloxy)phenyl]ethyl}oxy)-5-[5-(2-methyl-4-pyridinyl)-1H-benzimidazol-1-yl]-2-thiophenecarboxamide]
not listed: P388
< 500 nM: all other assays above

C[C@@H](Oc1cc(-n2cnc3cc(Cl)ccc32)sc1C(N)=O)c1cccc(OC2CCN(C)CC2)c1Cl [Example 3, 5-(5-Chloro-1H-benzimidazol-1-yl)-3-((1R)-1-{2-chloro-3-[(1-methylpiperidin-4-yl)oxy]phenyl}ethoxy)thiophene-2-carboxamide]
< 500 nM: all assays above

C[C@@H](Oc1cc(-n2cnc3cc(F)c(F)cc32)sc1C(N)=O)c1cccc(OC2CCN(C)CC2)c1Cl [Example 66, 3-[((1R)-1-(2-chloro-3-[(1-methyl-4-piperidinyl)oxy]phenyl}ethyl)-oxy]-5-(5,6-difluoro-1H-benzimidazol-1-yl)-2-thiophenecarboxamide]
< 500 nM: all assays above

C[C@@H](Oc1cc(-n2cnc3ccc(C#N)cc32)sc1C(N)=O)c1cccc(OC2CCN(C)CC2)c1Cl [Example 4, 3-((1R)-1-{2-chloro-3-[(1-methylpiperidin-4-yl)oxy]phenyl}-ethoxy)-5-(6-cyano-1H-benzimidazol-1-yl)thiophene-2-carboxamide]
< 500 nM: HCT116
